System: gene expression in D04 melanoma cells
Assay: RNA-Seq differential expression analysis (DESeq2)
Format: cell-based, human
Conditions: up-regulated list
Experimental: Total RNA was isolated using the RNeasy mini Kit (QIAGEN) following the manufacturer's protocol. Quality check for extracted RNA was done using 2100 Bioanalyzer (Agilent Technologies, USA) or Tapestation System (Agilent Technologies, USA). […] For samples used for identification of MAPK-responsive lncRNAs, paired-end, 101-bp sequencing was performed by Centrillion Genomic Services (Centrillion Biosciences, USA) on an Illumina HiSeq 2000. For DE gene analysis of ASO-transfected D04 samples, paired-end, 2×150-bp sequencing was performed by Genewiz (USA) on a Illumina HiSeq.
Sequence reads were aligned to the human genome (hg19) using TopHat (Version 2.0.11).
Differential expression (DE) analysis was done using DESeq2. Differentially expressed genes were defined by more than 1.5-fold changes (log 2 >0.58 or <−0.58) in expression with FDR<0.05. GO term analysis was done using DAVID Functional Annotation Clustering analysis.
To examine the biomolecular changes upon TRASH-inhibition in melanoma, D04 cells were treated with TRASH-ASOs (SEQ ID NO:15) and Control-ASOs and RNA was extracted and used for RNA-Seq. […] These GO terms consisted of genes encoding growth factors, tyrosine kinases, G protein coupled receptor subunits, and collagen subunits. Scatter plot diagram showing differential gene expression after TRASH-ASO treatment compared to Control-ASO treatment. (cut-off for significance was adjusted p-value <0.05). Data was obtained from RNA-Seq of D04 melanoma cells, treatment period was three days. (FIG. 5c)

GACTGGAGATAATTAA (gapmer, pattern not given here) [SEQ ID NO: 15, GapmeR ASO targeting AC004540.4 (TRASH), exon region of both isoforms; used for in vitro experiments]
log2FoldChange HIST3H2A (ENSG00000181218): 0.6762 | log2FoldChange GPR3 (ENSG00000181773): 0.5989 | log2FoldChange IBA57 (ENSG00000181873): 0.6496 | log2FoldChange KCNJ14 (ENSG00000182324): 0.8416 | log2FoldChange MEX3B (ENSG00000183496): 0.7229 | log2FoldChange SLC35F3 (ENSG00000183780): 0.8791 | log2FoldChange TXNRD2 (ENSG00000184470): 0.5869 | log2FoldChange OSBP2 (ENSG00000184792): 1.106 | log2FoldChange SDR42E1 (ENSG00000184860): 0.9762 | log2FoldChange MAFF (ENSG00000185022): 0.6847 | log2FoldChange SOCS1 (ENSG00000185338): 0.6402 | log2FoldChange PMEL (ENSG00000185664): 0.9831 | log2FoldChange MYBL1 (ENSG00000185697): 0.6266 | log2FoldChange PCLO (ENSG00000186472): 0.6974 | log2FoldChange MT1X (ENSG00000187193): 0.7581 | log2FoldChange MAGEH1 (ENSG00000187601): 0.7858 | log2FoldChange ZFP69B (ENSG00000187801): 0.7093 | log2FoldChange ZP3 (ENSG00000188372): 0.8099 | log2FoldChange C22orf34 (ENSG00000188511): 0.661 | log2FoldChange GJB3 (ENSG00000188910): 1.136 | log2FoldChange GJB5 (ENSG00000189280): 1.088 | log2FoldChange SH2D5 (ENSG00000189410): 1.08 | log2FoldChange PLEKHG4 (ENSG00000196155): 0.6321 | log2FoldChange CD55 (ENSG00000196352): 0.645 | log2FoldChange NUDT11 (ENSG00000196368): 0.6654 | log2FoldChange AC009022.1 (ENSG00000196696): 0.6881 | log2FoldChange S100A2 (ENSG00000196754): 0.5809 | log2FoldChange SLC6A17 (ENSG00000197106): 1.129 | log2FoldChange ZNF860 (ENSG00000197385): 0.5877 | log2FoldChange VEPH1 (ENSG00000197415): 0.5803 | log2FoldChange ZNF841 (ENSG00000197608): 0.6523 | log2FoldChange SERPINB2 (ENSG00000197632): 0.8127 | log2FoldChange PDCD1LG2 (ENSG00000197646): 1.192 | log2FoldChange FAM49A (ENSG00000197872): 0.7378 | log2FoldChange HRNR (ENSG00000197915): 0.6084 | log2FoldChange CSF2RA (ENSG00000198223): 1.103 | log2FoldChange CD247 (ENSG00000198821): 1.07 | log2FoldChange HSD3BP5 (ENSG00000198857): 0.8606 | log2FoldChange LINC01291 (ENSG00000204792): 0.9824 | log2FoldChange KRT81 (ENSG00000205426): 0.8139 | log2FoldChange TRBC2 (ENSG00000211772): 0.6815 | log2FoldChange ANG (ENSG00000214274): 1.047 | log2FoldChange FER1L6 (ENSG00000214814): 0.6181 | log2FoldChange UBE2QL1 (ENSG00000215218): 0.6007 | log2FoldChange PLXNA4 (ENSG00000221866): 1.101 | log2FoldChange RNU2-63P (ENSG00000222724): 0.6055 | log2FoldChange ROR1-AS1 (ENSG00000223949): 0.9732 | log2FoldChange ZMIZ1-AS1 (ENSG00000224596): 0.9113 | log2FoldChange AC017002.1 (ENSG00000224959): 0.6679 | log2FoldChange AL354740.1 (ENSG00000225339): 0.7567 | log2FoldChange CFLAR-AS1 (ENSG00000226312): 0.8124 | log2FoldChange AC016831.1 (ENSG00000226380): 0.8375 | log2FoldChange ERVMER34-1 (ENSG00000226887): 0.9222 | log2FoldChange AC020571.1 (ENSG00000229056): 0.6243 | log2FoldChange AL589880.1 (ENSG00000229939): 0.6572 | log2FoldChange AL590666.2 (ENSG00000229953): 0.9636 | log2FoldChange LINC01293 (ENSG00000230836): 1.066 | log2FoldChange LINC00704 (ENSG00000231298): 0.7366 | log2FoldChange AL603650.1 (ENSG00000232355): 1.015 | log2FoldChange LINC02535 (ENSG00000234155): 1.054 | log2FoldChange PINLYP (ENSG00000234465): 0.7137 | log2FoldChange RPL13AP20 (ENSG00000234498): 1.162 | log2FoldChange C19orf81 (ENSG00000235034): 0.9948 | log2FoldChange LINC00941 (ENSG00000235884): 0.9292 | log2FoldChange PNMA6A (ENSG00000235961): 0.8869 | log2FoldChange AL354719.2 (ENSG00000236345): 1.16 | log2FoldChange GGT8P (ENSG00000236969): 1.181 | log2FoldChange AL138828.1 (ENSG00000237596): 1.06 | log2FoldChange OXCT2P1 (ENSG00000237624): 1.01 | log2FoldChange SPATA3-AS1 (ENSG00000238062): 1.082 | log2FoldChange AC026250.1 (ENSG00000245522): 0.9507 | log2FoldChange SBF2-AS1 (ENSG00000246273): 0.9574 | log2FoldChange AC104066.1 (ENSG00000248375): 0.8941 | log2FoldChange LINC02021 (ENSG00000249846): 1.04 | log2FoldChange AC091173.1 (ENSG00000251127): 1.149 | log2FoldChange SMG1P6 (ENSG00000254634): 1.045 | log2FoldChange ZNF10 (ENSG00000256223): 0.6255 | log2FoldChange C17orf100 (ENSG00000256806): 0.644 | log2FoldChange AC073611.1 (ENSG00000257605): 0.6207 | log2FoldChange LINC01579 (ENSG00000258754): 0.7555 | log2FoldChange AC013652.1 (ENSG00000259345): 0.6859 | log2FoldChange AC011468.1 (ENSG00000260160): 0.8721 | log2FoldChange LINC02170 (ENSG00000260896): 0.7455 | log2FoldChange LINC00622 (ENSG00000260941): 0.6079 | log2FoldChange EPPK1 (ENSG00000261150): 0.7148 | log2FoldChange LINC01029 (ENSG00000265843): 0.6081 | log2FoldChange PCAT19 (ENSG00000267107): 1.193

Reference: patent publication US20250197864A1, “LNCRNA TRANSCRIPTS IN MELANOMAGENESIS” (The Regents of the University of California, priority 2021, published 2025)
